Laboratory results taken from patent US11427637B2, “Methods of treating PD-L1 expressing cancer” (Mayo Foundation for Medical Education and Research, priority 2016, dated 2022).

How the values were obtained:
[1] = system: PD-L1 positive C8161 melanoma tumor cells; test: In vivo efficacy, C8161 melanoma tumors in athymic nude mice; conditions: one IV tail vein injection; atezolizumab 18 mg/kg, ABX 45 mg/kg, AA130 = 18 mg/kg atezolizumab and 45 mg/kg ABX
Method: Athymic nude mice (Harlan Sprague Dawley) were injected with 2×10^6 PD-L1 positive C8161 melanoma tumor cells. The tumors were allowed to grow until about 600 mm^3 and were treated by 100 μl IV tail vein injection with saline, atezolizumab alone (18 mg/kg), ABX alone (45 mg/kg) and AA130 (18 mg/kg atezolizumab and 45 mg/kg ABX) one time (FIGS. 5A-5D). Tumor growth was monitored 3 times/week. Tumor size was calculated with the equation: (length×width^2)/2.
Kaplan Meier curves were generated using Graph Pad software. The median survival for each group was 14, 13, 16, and 21.5 days for saline, atezolizumab, ABX and AA130, respectively. Survival differences between AA130 and all other groups were significant with p-values of 0.0008 for saline, 0.0015 for atezolizumab, and 0.0113 for Abraxane.

ABX = target: T1, ABX (Homo sapiens, UniProt P02768); test: Biolayer interferometry (BLItz) binding of atezolizumab to ABX; conditions: biotinylated atezolizumab on streptavidin probe; ABX 100, 500, 1000 μg/mL in 1×PBS; read-out: Kd (binding affinity between atezolizumab and ABX)
T1 construct: purchased Celgene Corp
Method: To determine whether atezolizumab and ABX are capable of interacting to form nanoparticle complexes, Biolayer interferometry (BLItz) (Forte Bioscience) was performed using streptavidin probes. 100 ug/ml of biotinylated atezolizumab in 1×PBS was bound to the streptavidin probe. After washing unbound atezolizumab from the probe, the antibody-bound probe was exposed to ABX at concentrations of 100, 500, 1000 μg/mL in 1×PBS. An antibody probe exposed to PBS was used as background and background was subtracted. BLItz software was used to calculate dissociation constants (FIG. 1).

With “atezolizumab: fully humanized, Fc-modified monoclonal antibody of IgG1 isotype against PD-L1” the median survival [1] was 13 days and the Kd (ABX) was 1.46 nM.
